13 molecules from patent publication US4806556A, “Gut-selective opiates” (Regents of the University of Minnesota, priority 1987, dated 1989) can be followed below.

The subject of test [1] is electrically-stimulated guinea pig ileum (GPI) preparations. As to the kind of experiment: Antagonist activity: displacement of the morphine concentration-response curve on guinea pig ileum preparation. The following applies: for Antagonism (Morphine IC50 Ratio): factor by which the morphine concentration-response curve is shifted to higher concentration: IC50 of morphine with antagonist / control IC50, 3 determinations.

Test [2] has the same test system. The experiment in a line: Agonist activity: inhibition of contraction of electrically-stimulated guinea pig ileum (GPI) preparation, compared to morphine. On the set-up: Emax: dose or concentration left out as unconfirmed. Particulars: for Emax: Cavia porcellus, read-out: Agonism: partial agonist, maximal response relative to that of morphine; for Agonist activity on GPI (in words): compared to morphine; for Agonism (Morphine = 1): potency factor for the inhibition of contraction relative to that of morphine: electrically stimulated guinea pig ileum, 3 determinations.

Take `O=C(O)CCC(=O)NC1CC[C@@]2(O)[C@H]3Cc4ccc(O)c5c4[C@@]2(CCN3CC2CC2)[C@H]1O5` (stereo partly drawn) [Compound 1]: the “Antagonism (Morphine IC50 Ratio): factor by which the morphine concentration-response curve is shifted to higher concentration” value in test [1] (ligand concentration 200 nM) is listed as 11.0. For the same molecule, in test [2], the Emax is 30 to 60% and the “Agonist activity on GPI (in words)” value is given as “submaximal responses relative to morphine”.

Take `O=C(O)/C=C/C(=O)NC1CC[C@@]2(O)[C@H]3Cc4ccc(O)c5c4[C@@]2(CCN3CC2CC2)[C@H]1O5` (stereo partly drawn) [Compound 3]: in test [1] (ligand concentration = 20 nM), the “Antagonism (Morphine IC50 Ratio): factor by which the morphine concentration-response curve is shifted to higher concentration” value amounted to 3.7. In addition, the “Agonism (Morphine = 1): potency factor for the inhibition of contraction relative to that of morphine” value in test [2] came to 3.

Turning to `O=C(O)COCC(=O)NC1CC[C@@]2(O)[C@H]3Cc4ccc(O)c5c4[C@@]2(CCN3CC2CC2)[C@H]1O5` (stereo partly drawn) [Compound 4], in test [1] (ligand concentration 200 nM), the “Antagonism (Morphine IC50 Ratio): factor by which the morphine concentration-response curve is shifted to higher concentration” value worked out at 34.8. For the same molecule, in test [2], the Emax was in the range of 30 to 60% and the “Agonist activity on GPI (in words)” value is “submaximal responses relative to morphine”.

In the case of `N=C(N)NCCCC(N)C(=O)N[C@@H]1CC[C@@]2(O)[C@H]3Cc4ccc(O)c5c4[C@@]2(CCN3CC2CC2)[C@H]1O5` (stereo partly drawn) [Compound 5, Arginyl-β-naltrexamine], the “Antagonism (Morphine IC50 Ratio): factor by which the morphine concentration-response curve is shifted to higher concentration” value in test [1] (ligand concentration 200 nM) is on record as 4.0. Moreover, in test [2], the Emax was in the range of 30 to 60% and the “Agonist activity on GPI (in words)” value was “submaximal responses relative to morphine”.

On to `NC(CC(=O)O)C(=O)NC1CCC2(O)C3Cc4ccc(O)c5c4C2(CCN3CC2CC2)C1O5` (stereo not drawn) [Compound 6], for which the “Morphine antagonist activity on GPI (in words)” value in test [1] is reported as “possible exception to this generality”. Also, in test [1] (ligand concentration 200 nM), the “Antagonism (Morphine IC50 Ratio): factor by which the morphine concentration-response curve is shifted to higher concentration” value is listed as 1. Further, in test [2], the “Agonism (Morphine = 1): potency factor for the inhibition of contraction relative to that of morphine” value was found to be 14.2.

As to `O=C(O)CN[C@@H]1CC[C@@]2(O)[C@H]3Cc4ccc(O)c5c4[C@@]2(CCN3CC2CC2)[C@H]1O5` [Compound 7, β-Naltrexamineacetic acid], the “Antagonism (Morphine IC50 Ratio): factor by which the morphine concentration-response curve is shifted to higher concentration” value in test [1] (ligand concentration = 20 nM) was found to be 2.4. In addition, in test [2], the Emax lay in the range of 30 to 60% and the “Agonist activity on GPI (in words)” value is “submaximal responses relative to morphine”.

For the molecule `CN1CC[C@]23c4c5ccc(O)c4O[C@H]2C(NC(=O)CCC(=O)O)CC[C@@]3(O)[C@H]1C5` (stereo partly drawn) [Compound 8], in test [1] (ligand concentration 200 nM), the “Antagonism (Morphine IC50 Ratio): factor by which the morphine concentration-response curve is shifted to higher concentration” value amounted to 1. In addition, the “Agonism (Morphine = 1): potency factor for the inhibition of contraction relative to that of morphine” value in test [2] was 1.6.

In the case of `CN1CC[C@]23c4c5ccc(O)c4O[C@H]2C(NC(=O)/C=C/C(=O)O)CC[C@@]3(O)[C@H]1C5` (stereo partly drawn) [Compound 9], the “Antagonism (Morphine IC50 Ratio): factor by which the morphine concentration-response curve is shifted to higher concentration” value in test [1] (ligand concentration 200 nM) was 1. In test [2], the “Agonism (Morphine = 1): potency factor for the inhibition of contraction relative to that of morphine” value was 1.5.

As to `CN1CC[C@]23c4c5ccc(O)c4O[C@H]2C(NC(=O)/C=C\C(=O)O)CC[C@@]3(O)[C@H]1C5` (stereo partly drawn) [Compound 10], in test [1] (ligand concentration 200 nM), the “Antagonism (Morphine IC50 Ratio): factor by which the morphine concentration-response curve is shifted to higher concentration” value is 1. Further, the “Agonism (Morphine = 1): potency factor for the inhibition of contraction relative to that of morphine” value in test [2] was 2.7.

Consider `CN1CC[C@]23c4c5ccc(O)c4O[C@H]2C(NC(=O)COCC(=O)O)CC[C@@]3(O)[C@H]1C5` (stereo partly drawn) [Compound 11], for which the “Antagonism (Morphine IC50 Ratio): factor by which the morphine concentration-response curve is shifted to higher concentration” value in test [1] (ligand concentration 200 nM) is listed as 1. Moreover, the “Agonism (Morphine = 1): potency factor for the inhibition of contraction relative to that of morphine” value in test [2] is 3.1.

With `CN1CC[C@]23c4c5ccc(O)c4O[C@H]2C(NC(=O)C(N)CC(=O)O)CC[C@@]3(O)[C@H]1C5` (stereo partly drawn) [Compound 12], in test [1] (ligand concentration 200 nM), the “Antagonism (Morphine IC50 Ratio): factor by which the morphine concentration-response curve is shifted to higher concentration” value is 1. The “Agonism (Morphine = 1): potency factor for the inhibition of contraction relative to that of morphine” value in test [2] was found to be 6.1.

As to `O=C(O)CNN=C1CC[C@@]2(O)[C@H]3Cc4ccc(O)c5c4[C@@]2(CCN3CC2CC2)[C@H]1O5` [Compound 15, Naltrexazoneacetic acid], in test [1] (ligand concentration 200 nM), the “Antagonism (Morphine IC50 Ratio): factor by which the morphine concentration-response curve is shifted to higher concentration” value turned out to be 100. In test [2], the Emax lay in the range of 30 to 60%.

On to `N=C(N)NN=C1CC[C@@]2(O)[C@H]3Cc4ccc(O)c5c4[C@@]2(CCN3CC2CC2)[C@H]1O5` [Compound 16, Naltrexazone iminosemicarbazone], for which the “Agonism (Morphine = 1): potency factor for the inhibition of contraction relative to that of morphine” value in test [2] was found to be 29.
